Numbers after ± are expanded uncertainties.
Key:
[1] = excess molar enthalpy (molar enthalpy of mixing); xn = mol fraction of the nth substance listed; conditions: 298.15 K, 101 kPa, Liquid, Isothermal Titration Calorimeter
[2] = xn = mol fraction of the nth substance listed; conditions: 298.15 K, 101 kPa, Liquid, Vibrating tube method

CCCCCC[n+]1ccn(C)c1.O=S(=O)([N-]S(=O)(=O)C(F)(F)F)C(F)(F)F + CCCCCCO
[1]
Conditions	excess molar enthalpy [kcal/mol]
x2 = 0.0045	0.00956 ± 0.000478
x2 = 0.0089	0.0189 ± 0.000717
x2 = 0.0132	0.0282 ± 0.0012
x2 = 0.0176	0.037 ± 0.00143
x2 = 0.0219	0.0459 ± 0.00191
x2 = 0.0261	0.0545 ± 0.00215
x2 = 0.0304	0.0629 ± 0.00263
x2 = 0.0345	0.071 ± 0.00287
x2 = 0.0387	0.0791 ± 0.00335
x2 = 0.0428	0.0868 ± 0.00359
x2 = 0.0469	0.0946 ± 0.00382
x2 = 0.0509	0.102 ± 0.00406
x2 = 0.0549	0.109 ± 0.00454
x2 = 0.0589	0.117 ± 0.00478
x2 = 0.0629	0.124 ± 0.00502

CCn1cc[n+](C)c1.O=S(=O)([N-]S(=O)(=O)C(F)(F)F)C(F)(F)F + CCCCCCO
[1]
Conditions	excess molar enthalpy [kcal/mol]
x2 = 0.0036	0.00621 ± 0.000239
x2 = 0.0072	0.0117 ± 0.000478
x2 = 0.0107	0.0165 ± 0.000717
x2 = 0.0142	0.0206 ± 0.000956
x2 = 0.0177	0.0239 ± 0.000956
x2 = 0.0212	0.0265 ± 0.0012
x2 = 0.0246	0.0287 ± 0.0012

CCCCCC[n+]1ccn(C)c1.O=S(=O)([N-]S(=O)(=O)C(F)(F)F)C(F)(F)F + CCCCO
[1]
Conditions	excess molar enthalpy [kcal/mol]
x2 = 0.0064	0.0141 ± 0.000717
x2 = 0.0127	0.0277 ± 0.0012
x2 = 0.019	0.0411 ± 0.00167
x2 = 0.0252	0.0543 ± 0.00215
x2 = 0.0313	0.0672 ± 0.00287
x2 = 0.0373	0.0796 ± 0.00335
x2 = 0.0432	0.092 ± 0.00382
x2 = 0.0491	0.104 ± 0.0043
x2 = 0.0549	0.116 ± 0.00478
x2 = 0.0606	0.127 ± 0.00526
x2 = 0.0663	0.138 ± 0.00574
x2 = 0.0719	0.149 ± 0.00621
x2 = 0.0774	0.16 ± 0.00645
x2 = 0.0829	0.171 ± 0.00693
x2 = 0.0883	0.181 ± 0.00741

CCn1cc[n+](C)c1.O=S(=O)([N-]S(=O)(=O)C(F)(F)F)C(F)(F)F + CCCCO
[1]
Conditions	excess molar enthalpy [kcal/mol]
x2 = 0.0051	0.0103 ± 0.000478
x2 = 0.0102	0.0203 ± 0.000956
x2 = 0.0152	0.0304 ± 0.0012
x2 = 0.0201	0.0399 ± 0.00167
x2 = 0.025	0.0495 ± 0.00215
x2 = 0.0299	0.0586 ± 0.00239
x2 = 0.0347	0.0676 ± 0.00287
x2 = 0.0395	0.0765 ± 0.00311
x2 = 0.0442	0.0851 ± 0.00359
x2 = 0.0488	0.0935 ± 0.00382
x2 = 0.0535	0.102 ± 0.00406
x2 = 0.0581	0.11 ± 0.00454
x2 = 0.0626	0.118 ± 0.00478
x2 = 0.0671	0.125 ± 0.00502
x2 = 0.0715	0.133 ± 0.0055

CCCCCC[n+]1ccn(C)c1.O=S(=O)([N-]S(=O)(=O)C(F)(F)F)C(F)(F)F + CCO
[1]
Conditions	excess molar enthalpy [kcal/mol]
x2 = 0.0095	0.0195 ± 0.000837
x2 = 0.0189	0.0383 ± 0.0016
x2 = 0.0281	0.0564 ± 0.00232
x2 = 0.0371	0.0739 ± 0.00311
x2 = 0.046	0.0907 ± 0.00382
x2 = 0.0547	0.107 ± 0.0043
x2 = 0.0632	0.123 ± 0.00502
x2 = 0.0716	0.138 ± 0.00574
x2 = 0.0798	0.152 ± 0.00621
x2 = 0.0879	0.166 ± 0.00669
x2 = 0.0959	0.18 ± 0.00741
x2 = 0.1037	0.193 ± 0.00789
x2 = 0.1114	0.206 ± 0.00837
x2 = 0.1189	0.218 ± 0.00884
x2 = 0.1263	0.23 ± 0.00932

CCn1cc[n+](C)c1.O=S(=O)([N-]S(=O)(=O)C(F)(F)F)C(F)(F)F + CCO
[1]
Conditions	excess molar enthalpy [kcal/mol]
x2 = 0.0083	0.0143 ± 0.000717
x2 = 0.0165	0.0282 ± 0.0012
x2 = 0.0245	0.0416 ± 0.00167
x2 = 0.0324	0.0545 ± 0.00215
x2 = 0.0402	0.0669 ± 0.00287
x2 = 0.0479	0.0791 ± 0.00335
x2 = 0.0554	0.0908 ± 0.00382
x2 = 0.0628	0.102 ± 0.00406
x2 = 0.0702	0.113 ± 0.00454
x2 = 0.0773	0.124 ± 0.00502
x2 = 0.0844	0.134 ± 0.0055
x2 = 0.0914	0.144 ± 0.00598
x2 = 0.0983	0.154 ± 0.00621
x2 = 0.105	0.163 ± 0.00669
x2 = 0.1117	0.172 ± 0.00693

CCCCCCCCCCn1cc[n+](C)c1.O=S(=O)([N-]S(=O)(=O)C(F)(F)F)C(F)(F)F + CO
Conditions	excess molar enthalpy [kcal/mol]	mass density [kg/m3]
[1], x2 = 0.0171	0.0146 ± 0.000717	–
[1], x2 = 0.0336	0.028 ± 0.0012	–
[1], x2 = 0.0496	0.0402 ± 0.00167	–
[1], x2 = 0.0651	0.0511 ± 0.00215	–
[1], x2 = 0.08	0.0614 ± 0.00263	–
[1], x2 = 0.0945	0.0705 ± 0.00287	–
[1], x2 = 0.1086	0.0789 ± 0.00335	–
[1], x2 = 0.1222	0.0863 ± 0.00359	–
[1], x2 = 0.1354	0.0932 ± 0.00382	–
[1], x2 = 0.1482	0.0994 ± 0.00406	–
[1], x2 = 0.1606	0.105 ± 0.0043	–
[1], x2 = 0.1727	0.11 ± 0.00454	–
[1], x2 = 0.1844	0.115 ± 0.00478	–
[1], x2 = 0.1958	0.119 ± 0.00478	–
[1], x2 = 0.2069	0.123 ± 0.00502	–
[2], x1 = 0.0001	–	789.6 ± 1.6
[2], x1 = 0.0233	–	883.6 ± 1.8
[2], x1 = 0.0513	–	963.28 ± 1.9
[2], x1 = 0.1054	–	1054.89 ± 2.1
[2], x1 = 0.1417	–	1094.51 ± 2.2
[2], x1 = 0.1679	–	1115.13 ± 2.3
[2], x1 = 0.2161	–	1147.23 ± 2.3
[2], x1 = 0.2452	–	1163.25 ± 2.4
[2], x1 = 0.297	–	1183.51 ± 2.4
[2], x1 = 0.4686	–	1228.19 ± 2.5
[2], x1 = 0.5186	–	1236.02 ± 2.5
[2], x1 = 0.762	–	1263.65 ± 2.6
[2], x1 = 0.7868	–	1264.97 ± 2.6
[2], x1 = 0.8756	–	1271.49 ± 2.6
[2], x1 = 0.9503	–	1275.73 ± 2.6
[2], x1 = 1	–	1278.57 ± 2.6

Source: the NIST ThermoML archive (doi:10.1016/j.jct.2011.05.033)
